Test system: HCV pseudoparticles (genotype 1a HCV E1 and E2 envelope, H77C isolate)
Experiment: microbe, parasite or virus in culture
Type: cell-based
Settings: Hepatitis C virus, Huh-7, 48 h, HCV pseudoparticles (genotype 1a, H77C) in Huh7 cells; average of duplicate; luciferase 2 days after infection

Row | SMILES | EC50
1 | COC(=O)[C@H](CNC(=O)C(=O)Nc1ccc(Cc2ccccc2)cc1)NC(=O)c1ccc(Nc2nc(NC3(c4ccc(Cl)cc4)CC3)nc(OCC(F)(F)F)n2)cc1 [Compound 3091] | 2.85 nM
2 | C#Cc1ccc(NC(=O)C(=O)NC[C@H](NC(=O)c2ccc(Nc3nc(NC4(c5ccc(Cl)cc5)CC4)nc(OCC(F)(F)F)n3)cc2)C(=O)OC)cc1 [Compound 3100] | 0.27 nM
3 | COC(=O)[C@H](CNC(=O)C(=O)Nc1ccc(-n2nnnc2C)cc1)NC(=O)c1ccc(Nc2nc(NC3(c4ccc(Cl)cc4)CC3)nc(OCC(F)(F)F)n2)cc1 [Compound 3107] | 0.92 nM
4 | COC(=O)[C@H](CCNC(=O)C(=O)Nc1ccc(Oc2ccccc2)cc1)NC(=O)c1ccc(Nc2nc(NC3(c4ccc(Cl)cc4)CC3)nc(OCC(F)(F)F)n2)cc1 [Compound 3113] | 7.77 nM
5 | COC(=O)[C@H](CCNC(=O)C(=O)Nc1ccc(C)cc1)NC(=O)c1ccc(Nc2nc(NC3(c4ccc(Cl)cc4)CC3)nc(OCC(F)(F)F)n2)cc1 [Compound 3114] | 0.084 nM
6 | COC(=O)[C@H](CCNC(=O)C(=O)Nc1ccc(N2CC(C)OC(C)C2)cc1)NC(=O)c1ccc(Nc2nc(NC3(c4ccc(Cl)cc4)CC3)nc(OCC(F)(F)F)n2)cc1 (stereo partly shown) [Compound 3121] | 3.39 nM
7 | COC(=O)[C@H](CCNC(=O)C(=O)Nc1ccc(-n2cnc(Cl)c2Cl)cc1)NC(=O)c1ccc(Nc2nc(NC3(c4ccc(Cl)cc4)CC3)nc(OCC(F)(F)F)n2)cc1 [Compound 3124] | 18.2 nM
8 | C=Cc1ccc(NC(=O)C(=O)NCC[C@H](NC(=O)c2ccc(Nc3nc(NC4(c5ccc(Cl)cc5)CC4)nc(OCC(F)(F)F)n3)cc2)C(=O)OC)cc1 [Compound 3129] | 0.089 nM
9 | COC(=O)/C(CCNC(=O)C(=O)Nc1ccc(-n2nnnc2C)cc1)=N\C(=O)c1ccc(Nc2nc(NC3(c4ccc(Cl)cc4)CC3)nc(OCC(F)(F)F)n2)cc1 [Compound 3135] | 3.69 nM

Same assay, conditions: Hepatitis C virus, Huh-7, read-out: Activity (EC50 class), HCV pseudoparticles (genotype 1a, H77C) in Huh7 cells; EC50 expressed as class A/B

Row | SMILES | EC50
10 | COC(=O)[C@H](CNC(=O)C(=O)Nc1ccc(OCc2ccccc2)cc1)NC(=O)c1ccc(Nc2nc(NC3(c4ccc(Cl)cc4)CC3)nc(OCC(F)(F)F)n2)cc1 [Compound 3090] | 0.01 to 10 nM
11 | COC(=O)[C@H](CNC(=O)C(=O)Nc1ccc(Cc2ccccc2)cc1)NC(=O)c1ccc(Nc2nc(NC3(c4ccc(Cl)cc4)CC3)nc(OCC(F)(F)F)n2)cc1 [Compound 3091] | 0.01 to 10 nM
12 | COC(=O)[C@H](CNC(=O)C(=O)Nc1ccc(N2CC(C)NC(C)C2)cc1)NC(=O)c1ccc(Nc2nc(NC3(c4ccc(Cl)cc4)CC3)nc(OCC(F)(F)F)n2)cc1 (stereo partly shown) [Compound 3092] | 0.01 to 10 nM
13 | COC(=O)[C@H](CNC(=O)C(=O)Nc1ccc(-c2cnco2)cc1)NC(=O)c1ccc(Nc2nc(NC3(c4ccc(Cl)cc4)CC3)nc(OCC(F)(F)F)n2)cc1 [Compound 3093] | 0.01 to 10 nM
14 | COC(=O)[C@H](CNC(=O)C(=O)Nc1ccc(Cc2ccncc2)cc1)NC(=O)c1ccc(Nc2nc(NC3(c4ccc(Cl)cc4)CC3)nc(OCC(F)(F)F)n2)cc1 [Compound 3094] | 0.01 to 10 nM
15 | COC(=O)[C@H](CNC(=O)C(=O)Nc1ccc(-n2cnc(Cl)c2Cl)cc1)NC(=O)c1ccc(Nc2nc(NC3(c4ccc(Cl)cc4)CC3)nc(OCC(F)(F)F)n2)cc1 [Compound 3095] | 0.01 to 10 nM
16 | COC(=O)[C@H](CNC(=O)C(=O)Nc1ccc(OCC(F)(F)F)cc1)NC(=O)c1ccc(Nc2nc(NC3(c4ccc(Cl)cc4)CC3)nc(OCC(F)(F)F)n2)cc1 [Compound 3096] | 0.01 to 10 nM
17 | COC(=O)[C@H](CNC(=O)C(=O)Nc1ccc(N2CCCC2=O)cc1)NC(=O)c1ccc(Nc2nc(NC3(c4ccc(Cl)cc4)CC3)nc(OCC(F)(F)F)n2)cc1 [Compound 3097] | 0.01 to 10 nM
18 | COC(=O)[C@H](CNC(=O)C(=O)Nc1ccc(-n2ccc(C(F)(F)F)n2)cc1)NC(=O)c1ccc(Nc2nc(NC3(c4ccc(Cl)cc4)CC3)nc(OCC(F)(F)F)n2)cc1 [Compound 3098] | 0.01 to 10 nM
19 | COC(=O)[C@H](CNC(=O)C(=O)Nc1ccc(C(=O)N2CCOCC2)cc1)NC(=O)c1ccc(Nc2nc(NC3(c4ccc(Cl)cc4)CC3)nc(OCC(F)(F)F)n2)cc1 [Compound 3099] | 0.01 to 10 nM
20 | C#Cc1ccc(NC(=O)C(=O)NC[C@H](NC(=O)c2ccc(Nc3nc(NC4(c5ccc(Cl)cc5)CC4)nc(OCC(F)(F)F)n3)cc2)C(=O)OC)cc1 [Compound 3100] | 0.01 to 10 nM
21 | COC(=O)[C@H](CNC(=O)C(=O)Nc1ccc(-n2cncn2)cc1)NC(=O)c1ccc(Nc2nc(NC3(c4ccc(Cl)cc4)CC3)nc(OCC(F)(F)F)n2)cc1 [Compound 3101] | 0.01 to 10 nM
22 | COC(=O)[C@H](CNC(=O)C(=O)Nc1ccc(N2CCN(Cc3ccccc3)CC2)cc1)NC(=O)c1ccc(Nc2nc(NC3(c4ccc(Cl)cc4)CC3)nc(OCC(F)(F)F)n2)cc1 [Compound 3102] | 0.01 to 10 nM
23 | COC(=O)[C@H](CNC(=O)C(=O)Nc1ccc(-c2ccc(C#N)cc2)cc1)NC(=O)c1ccc(Nc2nc(NC3(c4ccc(Cl)cc4)CC3)nc(OCC(F)(F)F)n2)cc1 [Compound 3103] | 0.01 to 10 nM
24 | COC(=O)[C@H](CNC(=O)C(=O)Nc1ccc(N(C)c2nc(C)cc(C)n2)cc1)NC(=O)c1ccc(Nc2nc(NC3(c4ccc(Cl)cc4)CC3)nc(OCC(F)(F)F)n2)cc1 [Compound 3104] | 0.01 to 10 nM
25 | COC(=O)[C@H](CNC(=O)C(=O)Nc1ccc(S(C)(=O)=O)cc1)NC(=O)c1ccc(Nc2nc(NC3(c4ccc(Cl)cc4)CC3)nc(OCC(F)(F)F)n2)cc1 [Compound 3105] | 0.01 to 10 nM
26 | COC(=O)[C@H](CNC(=O)C(=O)Nc1ccc(S(=O)(=O)N2CCCC2)cc1)NC(=O)c1ccc(Nc2nc(NC3(c4ccc(Cl)cc4)CC3)nc(OCC(F)(F)F)n2)cc1 [Compound 3106] | 0.01 to 10 nM
27 | COC(=O)[C@H](CNC(=O)C(=O)Nc1ccc(-n2nnnc2C)cc1)NC(=O)c1ccc(Nc2nc(NC3(c4ccc(Cl)cc4)CC3)nc(OCC(F)(F)F)n2)cc1 [Compound 3107] | 0.01 to 10 nM
28 | COC(=O)[C@H](CNC(=O)C(=O)Nc1ccc(-n2cccn2)cc1)NC(=O)c1ccc(Nc2nc(NC3(c4ccc(Cl)cc4)CC3)nc(OCC(F)(F)F)n2)cc1 [Compound 3108] | 0.01 to 10 nM
29 | COC(=O)[C@H](CNC(=O)C(=O)Nc1ccc(-n2nc(C)cc2C)cc1)NC(=O)c1ccc(Nc2nc(NC3(c4ccc(Cl)cc4)CC3)nc(OCC(F)(F)F)n2)cc1 [Compound 3109] | 0.01 to 10 nM
30 | CC(C)(CNC(=O)C(=O)Nc1ccc(Cl)cc1C(N)=O)CNC(=O)c1ccc(Nc2nc(NC3(c4ccc(Cl)cc4)CC3)nc(OCC(F)(F)F)n2)cc1 [Compound 3110] | 0.01 to 10 nM
31 | COC(=O)[C@H](CCNC(=O)C(=O)Nc1ccc(C2CCCCC2)cc1)NC(=O)c1ccc(Nc2nc(NC3(c4ccc(Cl)cc4)CC3)nc(OCC(F)(F)F)n2)cc1 [Compound 3111] | 0.01 to 10 nM
32 | COC(=O)[C@H](CCNC(=O)C(=O)Nc1ccc(N2CCOCC2)cc1)NC(=O)c1ccc(Nc2nc(NC3(c4ccc(Cl)cc4)CC3)nc(OCC(F)(F)F)n2)cc1 [Compound 3112] | 0.01 to 10 nM

Row | SMILES | EC50
33 | COC(=O)[C@H](CCNC(=O)C(=O)Nc1ccc(Oc2ccccc2)cc1)NC(=O)c1ccc(Nc2nc(NC3(c4ccc(Cl)cc4)CC3)nc(OCC(F)(F)F)n2)cc1 [Compound 3113] | 0.01 to 10 nM
34 | COC(=O)[C@H](CCNC(=O)C(=O)Nc1ccc(C)cc1)NC(=O)c1ccc(Nc2nc(NC3(c4ccc(Cl)cc4)CC3)nc(OCC(F)(F)F)n2)cc1 [Compound 3114] | 0.01 to 10 nM
35 | COC(=O)[C@H](CCNC(=O)C(=O)Nc1ccc(CCCl)cc1)NC(=O)c1ccc(Nc2nc(NC3(c4ccc(Cl)cc4)CC3)nc(OCC(F)(F)F)n2)cc1 [Compound 3115] | 0.01 to 10 nM
36 | COC(=O)[C@H](CCNC(=O)C(=O)Nc1ccc(C(N)=O)cc1)NC(=O)c1ccc(Nc2nc(NC3(c4ccc(Cl)cc4)CC3)nc(OCC(F)(F)F)n2)cc1 [Compound 3116] | 0.01 to 10 nM
37 | CCN(CC)CCNC(=O)c1ccc(NC(=O)C(=O)NCC[C@H](NC(=O)c2ccc(Nc3nc(NC4(c5ccc(Cl)cc5)CC4)nc(OCC(F)(F)F)n3)cc2)C(=O)OC)cc1 [Compound 3117] | 0.01 to 10 nM
38 | COC(=O)[C@H](CCNC(=O)C(=O)Nc1ccc(OCc2ccccc2)cc1)NC(=O)c1ccc(Nc2nc(NC3(c4ccc(Cl)cc4)CC3)nc(OCC(F)(F)F)n2)cc1 [Compound 3118] | 0.01 to 10 nM
39 | COC(=O)[C@H](CCNC(=O)C(=O)NC1CCC(S(C)(=O)=O)CC1)NC(=O)c1ccc(Nc2nc(NC3(c4ccc(Cl)cc4)CC3)nc(OCC(F)(F)F)n2)cc1 (stereo partly shown) [Compound 3119] | 0.01 to 10 nM
40 | COC(=O)[C@H](CCNC(=O)C(=O)Nc1ccc(Cc2ccccc2)cc1)NC(=O)c1ccc(Nc2nc(NC3(c4ccc(Cl)cc4)CC3)nc(OCC(F)(F)F)n2)cc1 [Compound 3120] | 0.01 to 10 nM
41 | COC(=O)[C@H](CCNC(=O)C(=O)Nc1ccc(N2CC(C)OC(C)C2)cc1)NC(=O)c1ccc(Nc2nc(NC3(c4ccc(Cl)cc4)CC3)nc(OCC(F)(F)F)n2)cc1 (stereo partly shown) [Compound 3121] | 0.01 to 10 nM
42 | COC(=O)[C@H](CCNC(=O)C(=O)Nc1ccc(-c2cnco2)cc1)NC(=O)c1ccc(Nc2nc(NC3(c4ccc(Cl)cc4)CC3)nc(OCC(F)(F)F)n2)cc1 [Compound 3122] | 0.01 to 10 nM
43 | COC(=O)[C@H](CCNC(=O)C(=O)Nc1ccc(Cc2ccncc2)cc1)NC(=O)c1ccc(Nc2nc(NC3(c4ccc(Cl)cc4)CC3)nc(OCC(F)(F)F)n2)cc1 [Compound 3123] | 0.01 to 10 nM
44 | COC(=O)[C@H](CCNC(=O)C(=O)Nc1ccc(-n2cnc(Cl)c2Cl)cc1)NC(=O)c1ccc(Nc2nc(NC3(c4ccc(Cl)cc4)CC3)nc(OCC(F)(F)F)n2)cc1 [Compound 3124] | 0.01 to 10 nM
45 | COC(=O)[C@H](CCNC(=O)C(=O)Nc1ccc(OCC(F)(F)F)cc1)NC(=O)c1ccc(Nc2nc(NC3(c4ccc(Cl)cc4)CC3)nc(OCC(F)(F)F)n2)cc1 [Compound 3125] | 0.01 to 10 nM
46 | COC(=O)[C@H](CCNC(=O)C(=O)Nc1ccc(N2CCCC2=O)cc1)NC(=O)c1ccc(Nc2nc(NC3(c4ccc(Cl)cc4)CC3)nc(OCC(F)(F)F)n2)cc1 [Compound 3126] | 0.01 to 10 nM
47 | COC(=O)[C@H](CCNC(=O)C(=O)Nc1ccc(-n2ccc(C(F)(F)F)n2)cc1)NC(=O)c1ccc(Nc2nc(NC3(c4ccc(Cl)cc4)CC3)nc(OCC(F)(F)F)n2)cc1 [Compound 3127] | 0.01 to 10 nM
48 | COC(=O)[C@H](CCNC(=O)C(=O)Nc1ccc(C(=O)N2CCOCC2)cc1)NC(=O)c1ccc(Nc2nc(NC3(c4ccc(Cl)cc4)CC3)nc(OCC(F)(F)F)n2)cc1 [Compound 3128] | 0.01 to 10 nM
49 | C=Cc1ccc(NC(=O)C(=O)NCC[C@H](NC(=O)c2ccc(Nc3nc(NC4(c5ccc(Cl)cc5)CC4)nc(OCC(F)(F)F)n3)cc2)C(=O)OC)cc1 [Compound 3129] | 0.01 to 10 nM
50 | COC(=O)[C@H](CCNC(=O)C(=O)Nc1ccc(-n2cncn2)cc1)NC(=O)c1ccc(Nc2nc(NC3(c4ccc(Cl)cc4)CC3)nc(OCC(F)(F)F)n2)cc1 [Compound 3130] | 0.01 to 10 nM
51 | COC(=O)[C@H](CCNC(=O)C(=O)Nc1ccc(N2CCN(Cc3ccccc3)CC2)cc1)NC(=O)c1ccc(Nc2nc(NC3(c4ccc(Cl)cc4)CC3)nc(OCC(F)(F)F)n2)cc1 [Compound 3131] | 0.01 to 10 nM
52 | COC(=O)[C@H](CCNC(=O)C(=O)Nc1ccc(N(C)c2nc(C)cc(C)n2)cc1)NC(=O)c1ccc(Nc2nc(NC3(c4ccc(Cl)cc4)CC3)nc(OCC(F)(F)F)n2)cc1 [Compound 3133] | 0.01 to 10 nM
53 | COC(=O)/C(CCNC(=O)C(=O)Nc1ccc(-n2nnnc2C)cc1)=N\C(=O)c1ccc(Nc2nc(NC3(c4ccc(Cl)cc4)CC3)nc(OCC(F)(F)F)n2)cc1 [Compound 3135] | 0.01 to 10 nM
54 | COC(=O)/C(CCNC(=O)C(=O)Nc1ccc(-n2cccn2)cc1)=N\C(=O)c1ccc(Nc2nc(NC3(c4ccc(Cl)cc4)CC3)nc(OCC(F)(F)F)n2)cc1 [Compound 3136] | 0.01 to 10 nM
55 | COC(=O)/C(CCNC(=O)C(=O)Nc1ccc(-n2nc(C)cc2C)cc1)=N\C(=O)c1ccc(Nc2nc(NC3(c4ccc(Cl)cc4)CC3)nc(OCC(F)(F)F)n2)cc1 [Compound 3137] | 0.01 to 10 nM

Source: patent US8916702B2 (priority 2012, dated 2014)
